One test concerns NCI-H2087. Nature of the test: relative viability (nuclei count vs DMSO), 5 days (fraction); higher = more cells survive. The settings on record: first compound 8 µM. In outline: (§1)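 Nuclei were stained with Hoechst during a one-step fixation (final 0.05% Triton X-100, 1% formaldehyde, 1 ug/ml Hoechst) carried out 5 days after dosing, then counted on 4× images. The cells, lung cancer lines in 1536-well plates, had been dosed by pin tool the day after seeding with one drug alone or a fixed anchor-drug dose plus five library-drug doses (not always all listed) in √10 steps. Relative viability is the nuclei count in treated wells divided by that in vehicle wells, and each value is the median of duplicate plates.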
In the case of `CCCCCCCCCCCC1=C(O)C(=O)C=C(O)C1=O` [Embelin] + Cc1nc(Nc2ncc(C(=O)Nc3c(C)cccc3Cl)s2)cc(N2CCN(CCO)CC2)n1 [Dasatinib] (partner 0.075 µM), the relative viability was determined as 0.913.

For `CCCCCCCCCCCC1=C(O)C(=O)C=C(O)C1=O` [Embelin] + NC(=O)Nc1cc(-c2cccc(F)c2)sc1C(=O)N[C@H]1CCCNC1 [AZD7762] (partner 0.2 µM), the relative viability was found to be 1.28.

`CCCCCCCCCCCC1=C(O)C(=O)C=C(O)C1=O` [Embelin] + CC(=O)c1c(C)c2cnc(Nc3ccc(N4CCNCC4)cn3)nc2n(C2CCCC2)c1=O [Palbociclib] (partner 0.5 µM) came in with a relative viability of 0.248.

Another test relates to NCI-H2023. The description is as above. The settings on record: first compound 0.08 µM. In outline:
as §1
For the molecule `CCCCCCCCCCCC1=C(O)C(=O)C=C(O)C1=O` [Embelin] + N=C(N)NC(=N)NCCc1ccccc1 [Phenformin] (partner 250 µM), the relative viability worked out at 0.383.

For the molecule `CCCCCCCCCCCC1=C(O)C(=O)C=C(O)C1=O` [Embelin] + CCNC(=O)c1noc(-c2cc(C(C)C)c(O)cc2O)c1-c1ccc(CN2CCOCC2)cc1 [Luminespib] (partner 0.01 µM), the relative viability was 0.813.

`CCCCCCCCCCCC1=C(O)C(=O)C=C(O)C1=O` [Embelin] + Cc1nc(Nc2ncc(C(=O)Nc3c(C)cccc3Cl)s2)cc(N2CCN(CCO)CC2)n1 [Dasatinib] (partner 0.075 µM) came in with a relative viability of 0.565.

On to `CCCCCCCCCCCC1=C(O)C(=O)C=C(O)C1=O` [Embelin] + CC(=O)c1c(C)c2cnc(Nc3ccc(N4CCNCC4)cn3)nc2n(C2CCCC2)c1=O [Palbociclib] (partner 0.5 µM), for which the relative viability amounted to 0.379.

The test is the same for the next values; noted with them: first compound 0.8 µM.
Take `CCCCCCCCCCCC1=C(O)C(=O)C=C(O)C1=O` [Embelin] + N=C(N)NC(=N)NCCc1ccccc1 [Phenformin] (partner 250 µM): the relative viability is 0.469.

On to `CCCCCCCCCCCC1=C(O)C(=O)C=C(O)C1=O` [Embelin] + CCNC(=O)c1noc(-c2cc(C(C)C)c(O)cc2O)c1-c1ccc(CN2CCOCC2)cc1 [Luminespib] (partner 0.01 µM), for which the relative viability was 0.914.

With `CCCCCCCCCCCC1=C(O)C(=O)C=C(O)C1=O` [Embelin] + Cc1nc(Nc2ncc(C(=O)Nc3c(C)cccc3Cl)s2)cc(N2CCN(CCO)CC2)n1 [Dasatinib] (partner 0.075 µM), the relative viability turned out to be 0.673.

In turn, `CCCCCCCCCCCC1=C(O)C(=O)C=C(O)C1=O` [Embelin] + CC(=O)c1c(C)c2cnc(Nc3ccc(N4CCNCC4)cn3)nc2n(C2CCCC2)c1=O [Palbociclib] (partner 0.5 µM) had a relative viability of 0.345.

Staying with this test, now noted: first compound 2.53 µM.
`CCCCCCCCCCCC1=C(O)C(=O)C=C(O)C1=O` [Embelin] + N=C(N)NC(=N)NCCc1ccccc1 [Phenformin] (partner 250 µM) registered a relative viability of 0.418.

Take `CCCCCCCCCCCC1=C(O)C(=O)C=C(O)C1=O` [Embelin] + CCNC(=O)c1noc(-c2cc(C(C)C)c(O)cc2O)c1-c1ccc(CN2CCOCC2)cc1 [Luminespib] (partner 0.01 µM): the relative viability came out at 0.773.

Regarding `CCCCCCCCCCCC1=C(O)C(=O)C=C(O)C1=O` [Embelin] + Cc1nc(Nc2ncc(C(=O)Nc3c(C)cccc3Cl)s2)cc(N2CCN(CCO)CC2)n1 [Dasatinib] (partner 0.075 µM), the relative viability came to 0.611.

`CCCCCCCCCCCC1=C(O)C(=O)C=C(O)C1=O` [Embelin] + CC(=O)c1c(C)c2cnc(Nc3ccc(N4CCNCC4)cn3)nc2n(C2CCCC2)c1=O [Palbociclib] (partner 0.5 µM) gave a relative viability of 0.455.

Staying with this test, now noted: first compound 8 µM.
On to `CCCCCCCCCCCC1=C(O)C(=O)C=C(O)C1=O` [Embelin] + N=C(N)NC(=N)NCCc1ccccc1 [Phenformin] (partner 250 µM), for which the relative viability is 0.327.

For the molecule `CCCCCCCCCCCC1=C(O)C(=O)C=C(O)C1=O` [Embelin] + CCNC(=O)c1noc(-c2cc(C(C)C)c(O)cc2O)c1-c1ccc(CN2CCOCC2)cc1 [Luminespib] (partner 0.01 µM), the relative viability amounted to 0.372.

`CCCCCCCCCCCC1=C(O)C(=O)C=C(O)C1=O` [Embelin] + Cc1nc(Nc2ncc(C(=O)Nc3c(C)cccc3Cl)s2)cc(N2CCN(CCO)CC2)n1 [Dasatinib] (partner 0.075 µM) had a relative viability of 0.556.

The molecule `CCCCCCCCCCCC1=C(O)C(=O)C=C(O)C1=O` [Embelin] + CC(=O)c1c(C)c2cnc(Nc3ccc(N4CCNCC4)cn3)nc2n(C2CCCC2)c1=O [Palbociclib] (partner 0.5 µM) yielded a relative viability of 0.351.

A further test relates to HCC-366. The test is described as above. The following applies: first compound 0.08 µM. In a few lines: as §1
`CCCCCCCCCCCC1=C(O)C(=O)C=C(O)C1=O` [Embelin] + N=C(N)NC(=N)NCCc1ccccc1 [Phenformin] (partner 250 µM) showed a relative viability of 0.646.

Turning to `CCCCCCCCCCCC1=C(O)C(=O)C=C(O)C1=O` [Embelin] + Cc1nc(Nc2ncc(C(=O)Nc3c(C)cccc3Cl)s2)cc(N2CCN(CCO)CC2)n1 [Dasatinib] (partner 0.075 µM), the relative viability stood at 0.593.

Take `CCCCCCCCCCCC1=C(O)C(=O)C=C(O)C1=O` [Embelin] + NC(=O)Nc1cc(-c2cccc(F)c2)sc1C(=O)N[C@H]1CCCNC1 [AZD7762] (partner 0.2 µM): the relative viability turned out to be 0.317.

`CCCCCCCCCCCC1=C(O)C(=O)C=C(O)C1=O` [Embelin] + CC(=O)c1c(C)c2cnc(Nc3ccc(N4CCNCC4)cn3)nc2n(C2CCCC2)c1=O [Palbociclib] (partner 0.5 µM) showed a relative viability of 0.35.

The same test, now with this note: first compound 0.8 µM.
For `CCCCCCCCCCCC1=C(O)C(=O)C=C(O)C1=O` [Embelin] + N=C(N)NC(=N)NCCc1ccccc1 [Phenformin] (partner 250 µM), the relative viability was 0.638.

With `CCCCCCCCCCCC1=C(O)C(=O)C=C(O)C1=O` [Embelin] + Cc1nc(Nc2ncc(C(=O)Nc3c(C)cccc3Cl)s2)cc(N2CCN(CCO)CC2)n1 [Dasatinib] (partner 0.075 µM), the relative viability is 0.688.

`CCCCCCCCCCCC1=C(O)C(=O)C=C(O)C1=O` [Embelin] + NC(=O)Nc1cc(-c2cccc(F)c2)sc1C(=O)N[C@H]1CCCNC1 [AZD7762] (partner 0.2 µM) showed a relative viability of 0.314.

Values taken from the supplement of paper PMC10307832.
